Laboratory results reported in patent US6602511B2, “Microemulsions for use as vehicles for administration of active compounds” (AstraZeneca AB, priority 1995, dated 2003).
Converted amounts (≈) assume the structure as drawn.

Legend:
[1] = Solubility of sparingly soluble substances in water, microemulsion and PEG 400 (50%)
Protocol: (§1) Different amounts of the substances were added to 1 ml samples of the microemulsion placed in glass vials. The samples were rotated for 48 hours to allow a complete wetting of the solid substance. The samples were than kept in a waterbath at 25° C. for at least one week before inspection. The samples were inspected for any solid substance or phase separation and the maximum solubility was defined as the range between the last sample in each series without any trace of solids or phase separation, and the first sample with remaining and undissolved substance or a phase separation.

physchem = conditions: aqueous with cosolvent or surfactant or cyclodextrin
Protocol: as §1

Row | solubility ([1]; PEG 400 (50%) solution, aqueous with cosolvent or surfactant or cyclodextrin) [µg/mL] | Sol. in water ([1]; in water) [mg/L] | sol. in microemulsion 1a ([1]; microemulsion 1a, 25° C., at least one week, range between last clear and first undissolved sample) [mg/L] | sol. in microemulsion 1b ([1]; microemulsion 1b, 25° C., at least one week, range between last clear and first undissolved sample) [mg/L] | amount possible to administrate using the microemulsion compared to a 50% solution PEG 400 ([1]; microemulsion vs 50% solution PEG 400) | solubility (physchem) [µg/mL] | Compound
1 | 200 (≈ 651 µM) | 2.0 | 40000 to 50000 | 60000 to 75000 | over 100 times | – | CCOc1c(C)cc2c(c1C)[C@@]1(C)Cc3ccccc3[C@@]1(C)N2 (relative stereo) [The indeno indole, cis-4b,5,9b,10-tetrahydro-4b,7,9,9b-tetramethyl-8-ethoxy-indeno(1,2-b)indole]
2 | – | – | – | – | – | 700 (≈ 1820 µM) | CCOC(=O)C1=C(C)NC(C)=C(C(=O)OC)C1c1cccc(Cl)c1Cl (stereo not drawn) [Felodipine, ethyl methyl 4-(2,3-dichlorophenyl)-1,4-dihydro-2,6-dimethyl-3,5-pyridinedicarboxylate]
